Data as given in ChEMBL document CHEMBL1154489, “Isolation, structure and antibacterial activity of pleosporone from a pleosporalean ascomycete discovered by using antisense strategy” (Bioorg Med Chem, 2009).
Converted amounts (≈) assume the structure as drawn. The source made the active and inactive calls. The rule behind the calls is not given here.

What was measured:
Staphylococcus aureus [1] = assay: Antimicrobial activity against methicillin-sensitive Staphylococcus aureus ATCC 29213 after 20 hrs by twofold serial dilution method; type: functional; conditions: ATCC 29213, 20 h
Staphylococcus aureus [2] = assay: Antibacterial activity against Staphylococcus aureus RN450 bearing RPSD antisense S1-782B plasmid after 18 hrs by rpsD sensitized two-plate differential sensitivity assay; type: functional, organism-based
Staphylococcus aureus [3] = assay: Antibacterial activity against Staphylococcus aureus RN450 bearing RPSD antisense S1-782B plasmid at 1000 ug/mL after 18 hrs by rpsD sensitized two-plate differential sensitivity assay; type: functional; conditions: RN450, 18 h, read-out: IZ
Staphylococcus aureus [4] = assay: Antibacterial activity against wild-type Staphylococcus aureus RN450 at 1000 ug/mL after 18 hrs by rpsD sensitized two-plate differential sensitivity assay; type: functional; conditions: RN450, 18 h, read-out: IZ
Staphylococcus aureus [5] = assay: Antibacterial activity against Staphylococcus aureus RN450 bearing RPSD antisense S1-782B plasmid assessed as faint zone of clearance at 31.25 ug/mL after 18 hrs by rpsD sensitized two-plate differential sensitivity assay; type: functional; conditions: RN450, 18 h, read-out: IZ
Staphylococcus aureus [6] = assay: Antibacterial activity against wild-type Staphylococcus aureus RN450 assessed as faint zone of clearance at 31.25 ug/mL after 18 hrs by rpsD sensitized two-plate differential sensitivity assay; type: functional, organism-based
Staphylococcus aureus [7] = assay: Antibacterial activity against Staphylococcus aureus RN450 bearing RPSD antisense S1-782B plasmid assessed as minimum detection concentration after 18 hrs by rpsD sensitized two-plate differential sensitivity assay; type: functional
Staphylococcus aureus [8] = assay: Antimicrobial activity against methicillin-sensitive Staphylococcus aureus MB2865 after 20 hrs by twofold serial dilution method; type: functional
Staphylococcus aureus [9] = assay: Antimicrobial activity against methicillin-sensitive Staphylococcus aureus MB2865 after 20 hrs by twofold serial dilution method in presence of 50% human serum; type: functional
Streptococcus pneumoniae [10] = assay: Antimicrobial activity against drug-sensitive Streptococcus pneumoniae CL2883 in CAMHB medium containing 2.5% horse blood after 20 hrs by twofold serial dilution method; type: functional
Streptococcus pneumoniae [11] = assay: Antimicrobial activity against drug-sensitive Streptococcus pneumoniae CL2883 in isosensitet medium after 20 hrs by twofold serial dilution method; type: functional
Enterococcus faecalis = assay: Antimicrobial activity against vancomycin-sensitive macrolide-resistant Enterococcus faecalis CL8516 after 20 hrs by twofold serial dilution method; type: functional
Bacillus subtilis = assay: Antimicrobial activity against wild-type Bacillus subtilis MB964 after 20 hrs by twofold serial dilution method; type: functional
Haemophilus influenzae = assay: Antimicrobial activity against drug-sensitive Haemophilus influenzae MB4572 after 20 hrs by twofold serial dilution method; type: functional
Escherichia coli [12] = assay: Antimicrobial activity against wild-type Escherichia coli MB2884 after 20 hrs by twofold serial dilution method; type: functional
Escherichia coli [13] = assay: Antimicrobial activity against Escherichia coli MB5746 envA1, tolC mutant after 20 hrs by twofold serial dilution method; type: functional
Candida albicans = assay: Antimicrobial activity against wild-type Candida albicans MY1055 after 20 hrs by twofold serial dilution method; type: functional; conditions: MY1055, 20 h
Staphylococcus aureus [14] = assay: Antimicrobial activity against methicillin-sensitive Staphylococcus aureus ATCC 29213 at 16 ug/mL after 20 hrs by twofold serial dilution method; type: functional
Staphylococcus aureus [15] = assay: Antimicrobial activity against methicillin-sensitive Staphylococcus aureus MB2865 at 4 ug/mL after 20 hrs by twofold serial dilution method; type: functional
Streptococcus pneumoniae [16] = assay: Antimicrobial activity against drug-sensitive Streptococcus pneumoniae CL2883 in isosensitet medium at 2 ug/mL after 20 hrs by twofold serial dilution method; type: functional
HeLa = assay: Cytotoxicity against human HeLa cells; type: functional, cell-based
Staphylococcus aureus [17] = assay: Inhibition of RNA synthesis in Staphylococcus aureus assessed as [3H]uracil incorporation by scintillation counting; type: functional, organism-based
Staphylococcus aureus [18] = assay: Inhibition of DNA synthesis in Staphylococcus aureus assessed as [3H]thymidine incorporation by scintillation counting; type: functional, organism-based
Staphylococcus aureus [19] = assay: Inhibition of protein synthesis in Staphylococcus aureus assessed as [3H]leucine incorporation by scintillation counting; type: functional, organism-based
Staphylococcus aureus [20] = assay: Ratio of IC50 for RNA synthesis to IC50 for DNA synthesis in Staphylococcus aureus; type: functional
Staphylococcus aureus [21] = assay: Ratio of IC50 for RNA synthesis to IC50 for protein synthesis in Staphylococcus aureus; type: functional

Cc1cc(O)c2c(c1)C(=O)C1=C(C2=O)[C@@H](O)[C@@H](O)[C@@H](O)C1 [PLEOSPORONE]
MIC (Staphylococcus aureus [1]): > 64 µg/mL | MIC80 (Staphylococcus aureus [1]): 4 µg/mL (≈ 13.8 µM) | Activity (Staphylococcus aureus [2]): Dose-dependent effect | zone of inhibition at 1000 µg/mL (Staphylococcus aureus [3]): 21.8 mm | zone of inhibition at 1000 µg/mL (Staphylococcus aureus [4]): 19.2 mm | zone of inhibition at 31.25 µg/mL (Staphylococcus aureus [5]): 9 mm | Activity (Staphylococcus aureus [6]): inactive | Activity (Staphylococcus aureus [7]): 31.25 µg/mL | MIC (Staphylococcus aureus [8]): 64 µg/mL (≈ 220 µM) | MIC (Staphylococcus aureus [9]): > 64 µg/mL | MIC (Streptococcus pneumoniae [10]): 4 µg/mL (≈ 13.8 µM) | MIC (Streptococcus pneumoniae [11]): 4 µg/mL (≈ 13.8 µM) | MIC (Enterococcus faecalis): 64 µg/mL (≈ 220 µM) | MIC (Bacillus subtilis): 8 µg/mL (≈ 27.6 µM) | MIC (Haemophilus influenzae): 1 µg/mL (≈ 3.45 µM) | MIC (Escherichia coli [12]): > 64 µg/mL | MIC (Escherichia coli [13]): 16 µg/mL (≈ 55.1 µM) | MIC (Candida albicans): > 64 µg/mL | Activity (Staphylococcus aureus [14]): 80% | Activity (Staphylococcus aureus [15]): 80% | Activity (Streptococcus pneumoniae [16]): 80% | IC50 (HeLa): 0.23 µg/mL (≈ 0.792 µM) | IC50 (Staphylococcus aureus [17]): 1.3 µg/mL (≈ 4.48 µM) | IC50 (Staphylococcus aureus [18]): 8.4 µg/mL (≈ 28.9 µM) | IC50 (Staphylococcus aureus [19]): 15.4 µg/mL (≈ 53.1 µM) | Ratio IC50 (Staphylococcus aureus [20]): 6 | Ratio IC50 (Staphylococcus aureus [21]): 6
